Source: US11110102B2, “Antifungal agents used in combination” (Scynexis, Inc., priority 2017, dated 2021)
Values joined by “and” are separate entries in the source; they are usually repeats but may differ in a detail not shown here. Equal entries are not always repeated. Where two headings read alike, the source gives them in different places.

Experiments:
Test in all cases: Checkerboard combination MIC testing
Type in all cases: cell-based, Aspergillus fumigatus
A. fumigatus MRL #20438 = conditions: A. fumigatus MRL 20438 (wild-type), read at 48 hours, duplicate; for MIC per drug in Combination: SCY-078 combined with isavuconazole; for MIC: Aspergillus fumigatus, SCY078, 48 h
Description: (§1) To determine the type of interaction between a representative compound of the enfumafungin derivatives (SCY-078) with several antifungal agents against Aspergillus fumigatus, the most frequent mold causing invasive disease in humans, the checkerboard method was used. The citrate salt of the compound was used in the studies.
(§2) The checkerboard method involves the determination of percent growth inhibition of fungal cells in the presence of different combinations of drugs. Percent growth inhibition is calculated relative to growth in control wells which contain only cells and no drug. The assay was performed in 96-well microplates in which each row and each column contained twofold serial dilutions of drug A and drug B at concentrations ranging from 0 to slightly higher than their minimum inhibitory concentration (MIC). […] Then the inoculum was added to each well and the growth was evaluated after 48 hrs incubation to determine the first well in which growth was inhibited. The checkerboard-based determination of MICs of antifungal agents in combination was followed by further analysis employing the nonparametric fractional inhibitory concentration index (FICI), which is defined by the following equation:
(§3) [formula] where MIC-A and MIC-B are the MICs of drugs A and B, respectively.
(§4) Each drug was initially diluted in either sterile, distilled water or in DMSO, depending on whether the drug was water-soluble or water-insoluble, respectively.
(§5) Stock solution of SCY-078 was prepared in DMSO at 200 times the concentration desired for use in the drug plates. Serial dilutions of stock solution were conducted in DMSO to obtain eleven 2-fold dilutions of the drug. The SCY-078 solution was then diluted to 4 times the desired concentration in RPMI-1640 medium so that the DMSO would not limit growth of the organism and so that the quantity of DMSO was the same for every dilution.
(§6) Two 96-well plates are needed to conduct a combination test. Using a multichannel pipette, 50 μl of the lowest concentration of the first drug (Drug A) was added to each well of column 1 of the first plate (plate A) and column 1 of the second plate (plate B; rows A-D). Then, 50 μl of the next highest working dilution of Drug A was added to each well in column 2, continuing with dilutions until all columns 1-11 were filled. Column 12 was left empty. 50 μl of the lowest concentration of Drug B was added to each well in Row D of plate B. 50 μl of the next highest working dilution of Drug B was added to each well in row C of plate B, continuing with dilutions until all rows through row B of plate A were filled.
(§7) Following the above, 100 μl of organism inoculum was added to every well. The plates were then incubated for 48 hours and visually read after incubation.
(§8) The objective of the study was to determine whether the combination of SCY-078 with voriconazole, isavuconazole, or amphotericin B would result in a combined in vitro antifungal activity exceeding the sum of the activities of each drug alone. Combination MIC testing was performed using the checkerboard assay described above.
(§9) Initial MIC determinations of the individual antifungals were performed according to the Clinical and Laboratory Standards Institute (CLSI) M38-A2 standard for the susceptibility testing of filamentous fungi.
(§10) Combination MIC testing was performed using a checkerboard test method according to the Center for Medical Mycology SOP A11.3. The checkerboard combination test method is a modification of the microdilution antifungal susceptibility test wherein two test compounds are combined in varying concentrations to determine whether they have synergistic, antagonistic, or no effect on the respective MIC values.
(§11) Antifungals were serially diluted two-fold in RPMI medium to produce eleven concentrations each and were combined in wells of a microtiter plate. Two rows consisting of serial dilutions of each individual drug were included. All combination testing was conducted in duplicate. […]

A. fumigatus MRL #28378 = conditions: A. fumigatus MRL 28378 (wild-type), read at 48 hours, duplicate; for MIC per drug in Combination: SCY-078 combined with isavuconazole; for MIC: Aspergillus fumigatus, SCY078, 48 h
Description: as §1, §2, §3, §4, §5, §6, §7, §8, §9, §10, §11

A. fumigatus MRL #28382 = conditions: A. fumigatus MRL 28382 (wild-type), read at 48 hours, duplicate; for MIC: Aspergillus fumigatus, SCY078, 48 h
Description: as §1, §2, §3, §4, §5, §6, §7, §8, §9, §10, §11

A. fumigatus MRL #28383 = conditions: A. fumigatus MRL 28383 (azole-resistant), read at 48 hours, duplicate; for MIC: Aspergillus fumigatus, SCY078, 48 h, drug alone
Description: as §1, §2, §3, §4, §5, §6, §7, §8, §9, §10, §11

A. fumigatus MRL #28401 = conditions: A. fumigatus MRL 28401 (wild-type), read at 48 hours, duplicate; for MIC per drug in Combination: SCY-078 combined with isavuconazole; for MIC: Aspergillus fumigatus, SCY078, 48 h
Description: as §1, §2, §3, §4, §5, §6, §7, §8, §9, §10, §11

[1] = drug alone, SCY-078/isavuconazole test, read-out: MIC per drug Alone
[2] = SCY-078 combined with isavuconazole
[3] = SCY-078/isavuconazole test, read-out: MIC per drug Alone
[4] = SCY-078 combined with amphotericin B
[5] = SCY-078 combined with voriconazole
[6] = drug alone, SCY-078/voriconazole test
[7] = drug alone, SCY-078/amphotericin B test, read-out: MIC Alone
[8] = drug alone, SCY-078/voriconazole test, read-out: MIC Alone
[9] = drug alone, SCY-078/amphotericin B test
[10] = drug alone, SCY-078/isavuconazole test

In the case of C[C@@H](c1nc(-c2ccc(C#N)cc2)cs1)[C@](O)(Cn1cncn1)c1cc(F)ccc1F [Isavuconazole, isavuconazole], the “MIC per drug in Combination” value (A. fumigatus MRL #20438) is reported as 0.5 µg/mL, the MIC (A. fumigatus MRL #20438; [1]) is reported as 1 µg/mL and the “MIC per drug in Combination” value (A. fumigatus MRL #28378) is reported as 0.125 µg/mL and 0.25 µg/mL. The MIC (A. fumigatus MRL #28378; [1]) was 1 µg/mL, the “MIC per drug in Combination” value (A. fumigatus MRL #28382; [2]) was 0.25 µg/mL and the “MIC per drug in Combination” value (A. fumigatus MRL #28383; [2]) was >8 µg/mL and 4 µg/mL. The MIC (A. fumigatus MRL #28383; [3]) was over 8 µg/mL, the “MIC per drug in Combination” value (A. fumigatus MRL #28401) was 0.25 µg/mL and the MIC (A. fumigatus MRL #28401; [1]) was 1 µg/mL.

With CC(C)[C@@H](C)[C@@]1(C)CC[C@]2(C)[C@H]3CC[C@@H]4[C@@]5(COC[C@@]4(C)[C@@H](OC[C@](C)(N)C(C)(C)C)[C@H](n4ncnc4-c4ccncc4)C5)C3=CC[C@@]2(C)[C@@H]1C(=O)O [SCY-078, (1S,4aR,6aS,7R,8R,10aR,10bR,12aR,14R,15R)-15-[[(2R)-2-amino-2,3,3-trimethylbutyl]oxy]-8-[(1R)-1,2-dimethylpropyl]-14-[5-(4-pyridinyl)-1H-1,2,4-triazol-1-yl]-1,6,6a,7,8,9,10,10a,10b,11,12,12a-dodecahydro-1,6a,8,10a-tetramethyl-4H-1,4a-propano-2H-phenanthro[1,2-c]pyran-7-carboxylic acid] the “MIC in Combination” value (A. fumigatus MRL #20438; [4]) was 0.016 µg/mL, the “MIC per drug in Combination” value (A. fumigatus MRL #20438) was 0.016 µg/mL and the “MIC in Combination” value (A. fumigatus MRL #20438; [5]) was 0.125 µg/mL and 0.25 µg/mL. For the same compound, the “MIC Alone” value (A. fumigatus MRL #20438; [6]) was 4 µg/mL, the MIC (A. fumigatus MRL #20438; [7]) was 4 µg/mL and the MIC (A. fumigatus MRL #20438; [1]) was 4 µg/mL. For the same compound, the MIC (A. fumigatus MRL #20438; [8]) was 8 µg/mL, the “MIC in Combination” value (A. fumigatus MRL #28378; [4]) was 0.016 µg/mL and the “MIC per drug in Combination” value (A. fumigatus MRL #28378) was 0.125 µg/mL. The “MIC in Combination” value (A. fumigatus MRL #28378; [5]) was 0.5 µg/mL, the “MIC Alone” value (A. fumigatus MRL #28378; [6]) was 4 µg/mL and the MIC (A. fumigatus MRL #28378; [7]) was 4 µg/mL. The MIC (A. fumigatus MRL #28378; [1]) was 4 µg/mL, the MIC (A. fumigatus MRL #28378; [8]) was 8 µg/mL and the “MIC Alone” value (A. fumigatus MRL #28382; [9]) was 8 µg/mL. The “MIC per drug Alone” value (A. fumigatus MRL #28382; [10]) was 4 µg/mL, the MIC (A. fumigatus MRL #28382; [7]) was 4 µg/mL and the MIC (A. fumigatus MRL #28382; [1]) was 8 µg/mL. For the same compound, the MIC (A. fumigatus MRL #28382; [8]) was 8 µg/mL, the “MIC in Combination” value (A. fumigatus MRL #28383; [4]) was 0.016 µg/mL and the “MIC in Combination” value (A. fumigatus MRL #28383; [5]) was 0.031 µg/mL. It also gave an MIC (A. fumigatus MRL #28383; SCY-078/amphotericin B test, read-out: MIC Alone) of 4 µg/mL, an MIC (A. fumigatus MRL #28383; [3]) of 4 µg/mL and an MIC (A. fumigatus MRL #28383; SCY-078/voriconazole test, read-out: MIC Alone) of 8 µg/mL. The “MIC in Combination” value (A. fumigatus MRL #28401; [4]) was 0.016 µg/mL and 0.031 µg/mL, the “MIC per drug in Combination” value (A. fumigatus MRL #28401) was 0.25 µg/mL and 0.5 µg/mL and the “MIC in Combination” value (A. fumigatus MRL #28401; [5]) was 0.25 µg/mL and 0.125 µg/mL. For the same compound, the “MIC Alone” value (A. fumigatus MRL #28401; [9]) was 8 µg/mL, the “MIC per drug Alone” value (A. fumigatus MRL #28401; [10]) was 8 µg/mL and the MIC (A. fumigatus MRL #28401; [7]) was 4 µg/mL. It also gave an MIC (A. fumigatus MRL #28401; [1]) of 4 µg/mL and an MIC (A. fumigatus MRL #28401; [8]) of 8 µg/mL.
